Each molecule was assayed against T1, acetylcholine muscarinic M1 receptor (Homo sapiens, UniProt P11229) (assay: muscarinic FLIPR assay: intracellular calcium in CHOnfat/hM1 cells, potentiation of EC20 acetylcholine). Settings: not given.
T1 construct: expressed in transfected cells; host or cells: CHOnfat (CHO cells, NFAT reporter background) expressing hM1
T1 sequence (P11229 1-460): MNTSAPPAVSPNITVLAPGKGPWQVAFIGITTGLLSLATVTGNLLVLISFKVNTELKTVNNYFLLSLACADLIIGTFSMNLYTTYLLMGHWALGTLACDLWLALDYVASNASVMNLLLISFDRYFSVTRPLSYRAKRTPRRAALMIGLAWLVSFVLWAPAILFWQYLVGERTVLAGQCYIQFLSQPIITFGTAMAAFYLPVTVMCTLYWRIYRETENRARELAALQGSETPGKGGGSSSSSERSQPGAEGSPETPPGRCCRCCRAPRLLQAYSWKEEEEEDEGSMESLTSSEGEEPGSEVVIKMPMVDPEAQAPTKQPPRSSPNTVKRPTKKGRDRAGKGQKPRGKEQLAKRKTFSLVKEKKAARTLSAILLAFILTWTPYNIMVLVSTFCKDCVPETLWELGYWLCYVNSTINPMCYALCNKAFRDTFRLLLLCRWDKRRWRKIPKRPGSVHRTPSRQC
Assay type: cell-based
Protocol: The assay studies the effect of one or several concentrations of test compounds on basal or acetylcholine-stimulated Ca^2+ levels using FLIPR.
Compounds are prepared and subjected to a preincubation period of 4 min. Thereafter, a single EC20 concentration of acetylcholine is added to each well (3 nM final). The intracellular Ca^2+ level of each sample is measured and compared to an acetylcholine control to determine any modulatory activity.
Cells: CHOnfat/hM1, hM2, hM3 or hM4 cells are plated 24 hr before the assay at a density of 18,000 cells/well (100 μL) in a 384 well plate. CHOnfat/hM1 and CHOnfat/hM3 Growth Medium: 90% DMEM (Hi Glucose); 10% HI FBS; 2 mM L-glutamine; 0.1 mM NEAA; Pen-Strep; and 1 mg/ml Geneticin, are added. For M2Gqi5CHOnfat and M4Gqi5CHOnfat cells, an additional 600 ug/ml hygromycin is added.
Equipment: 384 well plate, 120 μL addition plate; 96-well Whatman 2 ml Uniplate Incubator, 37° C., 5% CO2; Skatron EMBLA-384 Plate Washer; Multimek Pipetting System; Genesis Freedom 200 System; Mosquito System; Temo Nanoliter Pipetting System; and FLIPR^384 Fluorometric Imaging Plate Reader System are used.
Buffers. Assay Buffer: Hanks Balanced Salt Solution, with 20 mM Hepes, 2.5 mM Probenecid (Sigma P-8761) first dissolved in 1N NaOH, 1% Bovine Serum Albumin (Sigma A-9647). Dye Loading Buffer: Assay Buffer plus 1% Fetal Bovine Serum and Fluo-4AM/Pluronic Acid Mixture. 2 mM Fluo-4AM ester stock in DMSO (Molecular Probes F-14202) Concentration of 2 uM in buffer for a final concentration of 1 μM in Assay. 20% Pluronic Acid Solution stock, with concentration of 0.04% in Buffer, 0.02% in Assay.
65 μL of 2 mM Fluo-4AM are mixed with 130 μL of 20% Pluronic Acid. The resulting solution and 650 μL FBS is added to the assay buffer for a total volume of 65 mL. Positive Controls: 4-Br-A23187: 10 mM in DMSO; final concentration 10 μM. Acetylcholine: 10 mM in water, working stock at both 20 uM and 30 uM in assay buffer, final concentration of 10 μM. This is used to check the maximum stimulation of the CHOK1/hM1 cells. 20 uM (2×) acetylcholine is added in the preincubation part of the assay, and the 30 uM (3×) stock is added in the second part. (EC20)Acetylcholine: 10 mM in water, working stock of 9 nM (3×), and final concentration in assay is 3 nM. This is used after the preincubation with test compounds. Addition of the EC20) Acetylcholine to each well with a test compound will ascertain any modulator activity. 24 wells contain 3 nM Acetylcholine alone as a control.
Determining Activity of Putative Compounds:
Screening Plate Compounds are titrated in 96-well plates (columns 2-11), 100% DMSO, started at a concentration of 15 mM (150× stock concentration), and 3-fold serial dilutions using Genesis Freedom200 System. Four 96-well plates are combined into a 384-well plate using Mosquito Nanoliter Pipetting System by transferring 1 ul of serial diluted compounds to each well, and 1 mM acetylcholine (100× stock concentration) were added as a control. Using Temo, 49 μl assay buffer is added to each well of the 384-well plate right before assay.
In a 96-well Whatman 2 ml Uniplate, 9 nM Acetylcholine (3×) is pipetted into wells corresponding to the screening compounds, and into control wells. The 30 uM acetylcholine control (3×) is added into control wells, and the 3× agonist plate is transferred into a 384 well plate.
Cells are washed three times with 100 μL of buffer, leaving 30 μL of buffer in each well. Using Multimek, 30 μL of Dye Loading Buffer is added into each well and incubated at […], 5% CO2 for up to one hr.
After 60 min, the cells are washed three times with 100 μL of buffer, leaving 30 μL of buffer in each well. The cell plate, screening plate, and agonist addition plates are placed on the platform in the FLIPR and the door closed. A signal test to check background fluorescence and basal fluorescence signal is performed. Laser intensity is adjusted if necessary. […]

Compound | EC50 [nM]
N#CC1(c2ccccc2)CCN(Cc2cc(C(=O)O)c(=O)n3ccccc23)CC1 [Example 3] | 152
Cc1cccc(C2(C#N)CCN(Cc3cc(C(=O)O)c(=O)n4ccccc34)CC2)c1 [Example 8] | 87
COc1ccccc1C1(C#N)CCN(Cc2cc(C(=O)O)c(=O)n3ccccc23)CC1 [Example 10] | 164
N#CC1(c2cccc(Cl)n2)CCN(Cc2cc(C(=O)O)c(=O)n3ccccc23)CC1 [Example 28] | 133
N#CC1(c2nc3ccccc3s2)CCN(Cc2cc(C(=O)O)c(=O)n3ccccc23)CC1 [Example 45] | 91
N#CC1(c2cccc(F)c2)CCN(Cc2cc(C(=O)O)c(=O)n3ccccc23)CC1 [Example 46, 1-{[4-cyano-4-(3-fluorophenyl)piperidin-1-yl]methyl}-4-oxo-4H-quinolizine-3-carboxylic acid] | 562
N#CC1(c2cccnc2)CCN(Cc2cc(C(=O)O)c(=O)n3ccccc23)CC1 [Example 47, 1-[(4-cyano-4-pyridin-3-ylpiperidin-1-yl)methyl]-4-oxo-4H-quinolizine-3-carboxylic acid] | 363

Same assay, conditions: CHOnfat/hM1 cells, FLIPR, 4 min preincubation, then EC20 acetylcholine (3 nM final); read-out: IP Value (inflection point)

Compound | EC50 [nM]
N#CC1(c2cnc3ccccc3n2)CCN(Cc2cc(C(=O)O)c(=O)n3ccccc23)CC1 [Example 42] | 1240
N#CC1(c2ncccc2Br)CCN(Cc2cc(C(=O)O)c(=O)n3ccccc23)CC1 [Example 48, 1-{[4-(3-bromopyridin-2-yl)-4-cyanopiperidin-1-yl]methyl}-4-oxo-4H-quinolizine-3-carboxylic acid] | 3400
C=Cc1cccnc1C1(C#N)CCN(Cc2cc(C(=O)O)c(=O)n3ccccc23)CC1 [Example 49, 1-{[4-cyano-4-(3-vinylpyridin-2-yl)piperidin-1-yl]methyl}-4-oxo-4H-quinolizine-3-carboxylic acid] | 6300
C=Cc1ccc(C2(C#N)CCN(Cc3cc(C(=O)O)c(=O)n4ccccc34)CC2)nc1 [Example 50, 1-{[4-cyano-4-(5-vinylpyridin-2-yl)piperidine-1-yl]methyl}-4-oxo-4H-quinolizine-3-carboxylic acid] | 403

Reference: US8258135B2, “Quinolizidinone M1 receptor positive allosteric modulators” (Merck Sharp & Dohme Corp., priority 2007, dated 2012)
